The subject of the assay is HEY cells. The assay can be described thus: sensitivity of transfected HEY cells to cisplatin. The assay is classed as cell-based, human. The settings on record: cisplatin 0.1-50 μM. The procedure:
Cultures of the mesenchymal HEY cells were transfected with a negative control (NC) miRNA or miR-429 using Lipofectamine 2000 (Invitrogen) and treated with increasing concentrations of cisplatin. (0.1, 0.5, 1, 3, 5, 7, 10, 15, 20, 30, 50 μM).

Usually IC50 stands for the midpoint of a concentration-inhibition curve. A higher IC50 goes with a need for much substance. For `N.N.[Cl][Pt][Cl]` [cisplatin], the IC50 amounted to 4.6 µM (HEY cells transfected with miR-429) and 8.7 µM (HEY cells transfected with negative control (NC) miRNA).

The values are drawn from patent publication US8895509B2, “MIR-200 family induces mesenchymal-to-epithelial transition (MET) in ovarian cancer cells” (Georgia Tech Research Corporation, priority 2010, dated 2014).
